In the Kinase Knowledgebase extract (Sharma et al. 2016) one finds IC50 and IC80 data, which are given here for 29 compounds.

SMILES strings stand for the structures.

The target in the assay is PIK3CA (human) (UniProt P42336). The assay can be described thus: Inhibition of PIK3CA Kinase Activity.

The IC50 is the concentration at which inhibition is half-maximal. A word on the IC80: it is the concentration at which the effect reaches the 80% level.

Chain of PIK3CA (human) (P42336 whole entry, looked up): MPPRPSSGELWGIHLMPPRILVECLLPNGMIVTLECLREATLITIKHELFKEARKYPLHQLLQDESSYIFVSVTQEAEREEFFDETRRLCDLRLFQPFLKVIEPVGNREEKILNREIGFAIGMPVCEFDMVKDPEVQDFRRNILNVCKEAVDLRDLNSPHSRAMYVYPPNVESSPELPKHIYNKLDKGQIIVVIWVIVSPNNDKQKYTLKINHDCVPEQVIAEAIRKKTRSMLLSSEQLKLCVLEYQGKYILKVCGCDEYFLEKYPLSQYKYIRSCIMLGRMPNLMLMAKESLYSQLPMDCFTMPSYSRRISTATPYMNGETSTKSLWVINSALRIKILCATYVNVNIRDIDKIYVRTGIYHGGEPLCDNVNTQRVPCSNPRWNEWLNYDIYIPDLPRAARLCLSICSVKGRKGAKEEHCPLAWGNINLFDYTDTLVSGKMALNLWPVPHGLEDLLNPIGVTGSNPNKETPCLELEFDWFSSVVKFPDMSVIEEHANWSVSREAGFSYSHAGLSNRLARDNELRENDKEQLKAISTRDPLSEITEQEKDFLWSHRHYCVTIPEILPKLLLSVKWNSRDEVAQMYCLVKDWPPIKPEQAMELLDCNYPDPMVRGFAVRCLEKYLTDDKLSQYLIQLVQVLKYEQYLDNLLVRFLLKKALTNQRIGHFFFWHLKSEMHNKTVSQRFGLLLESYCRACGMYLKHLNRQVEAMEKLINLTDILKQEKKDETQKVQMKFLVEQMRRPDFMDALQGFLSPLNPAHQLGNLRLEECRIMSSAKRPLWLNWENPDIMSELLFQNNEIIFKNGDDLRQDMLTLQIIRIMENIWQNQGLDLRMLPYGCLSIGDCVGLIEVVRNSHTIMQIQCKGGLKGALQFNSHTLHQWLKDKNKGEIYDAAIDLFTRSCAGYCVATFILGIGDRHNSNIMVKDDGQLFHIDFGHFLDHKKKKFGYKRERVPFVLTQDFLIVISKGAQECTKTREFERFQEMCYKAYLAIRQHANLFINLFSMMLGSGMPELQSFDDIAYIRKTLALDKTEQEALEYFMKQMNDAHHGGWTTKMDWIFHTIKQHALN

`CNC(=O)Nc1ccc(-c2nc(N3CCOCC3)c3cn[nH]c3n2)cc1`: the IC50 was 14 nM. This counts as double-digit nanomolar.

Compound `CC(=O)Nc1ccc(-c2nc(N3CCOCC3)c3cnn(C4CCCCO4)c3n2)cc1` (centres undefined) came in with a half-inhibitory concentration (IC50) of 1650 nM.

For `c1ccc(CN2CCC(n3ncc4c(N5CCOCC5)nc(-c5cccc6c5sc5ccccc56)nc43)CC2)cc1`, the IC50 came to 8770 nM.

As for `NC(=O)Cc1cccc(-c2nc(N3CCOCC3)c3cnn(-c4ccccc4)c3n2)c1`, the IC50 amounted to 357 nM.

`c1ccc(CN2CCC(n3ncc4c(N5CCOCC5)nc(-c5ccc6ccccc6c5)nc43)CC2)cc1` displayed an IC50 of 8200 nM. Against the preceding compound, the IC50 is about 23-fold higher.

`c1ccc(-n2ncc3c(N4CCOCC4)nc(-c4csc5ccccc45)nc32)cc1` registered an IC50 of 10000 nM.

`c1ccc(CN2CCC(n3ncc4c(N5CCOCC5)nc(-c5cccc6ccccc56)nc43)CC2)cc1`: the IC50 amounted to 10000 nM.

The compound `COC(=O)Nc1ccc(-c2nc(N3CCOCC3)c3cnn(C4CCN(C(=O)c5ccc(C#N)cc5)CC4)c3n2)cc1` returned an IC50 of 999 nM.

In turn, `O=C(c1cccc(C(F)(F)F)c1)N1CCC(n2ncc3c(N4CCOCC4)nc(-c4ccc5[nH]ccc5c4)nc32)CC1` returned an IC50 of 1430 nM.

`O=C(c1ccc(F)cc1)N1CCC(n2ncc3c(N4CCOCC4)nc(-c4ccc5[nH]ccc5c4)nc32)CC1`: the IC50 worked out at 1750 nM.

On to `COC(=O)Nc1ccc(-c2nc(N3CCOCC3)c3cnn(C4CCN(Cc5ccc(F)nc5)CC4)c3n2)cc1`, for which the IC50 was determined as 1200 nM.

Turning to `O=C(O)c1cccc(-c2nc(N3CCOCC3)c3cnn(C4CCN(Cc5ccccc5)CC4)c3n2)c1`, the IC50 is 10000 nM.

Compound `CCOC(=O)Nc1ccc(-c2nc(N3CCOCC3)c3cnn(C4CCN(C(=O)OCC)CC4)c3n2)cc1` returned an IC50 of 6720 nM. The IC50 values of the last two compounds are within 1.5-fold of each other.

Take `CNC(=O)Nc1ccc(-c2nc(N3CCOCC3)c3cnn(C4CCN(COC)CC4)c3n2)cc1`: the IC50 was determined as 1560 nM.

As for `CNC(=O)Nc1ccc(-c2nc(N3CCOCC3)c3cnn(C4=CCS(=O)(=O)CC4)c3n2)cc1`, the IC50 amounted to 74 nM.

Compound `c1ccc(-n2ncc3c(N4CCOCC4)nc(-c4cncnc4)nc32)cc1` showed an IC50 of 440 nM.

With `c1ccc(CN2CCC(n3ncc4c(N5CCOCC5)nc(-c5ccc(-c6ccccc6)cc5)nc43)CC2)cc1`, the IC50 came to 8570 nM.

On to `CNC(=O)Nc1ccc(-c2nc(N3CCOCC3)c3cnn(C4CCN(C(N)=O)CC4)c3n2)cc1`, for which the IC50 was found to be 66 nM.

On to `CN(C)C(=O)C=CCN1CCC(n2ncc3c(N4CCOCC4)nc(-c4ccc5[nH]ccc5c4)nc32)CC1`, for which the IC50 stood at 480 nM.

`c1cc2cc(-c3nc(N4CCOCC4)c4cnn([C@@H]5CCCNC5)c4n3)ccc2[nH]1` showed an IC50 of 10000 nM.

`c1ccc(CN2CCC(n3ncc4c(N5CCOCC5)nc(-c5cccc(-c6ccccc6)c5)nc43)CC2)cc1` came in with an IC50 of 10000 nM.

`CNC(=O)Nc1ccc(-c2nc(N3CCOCC3)c3cnn(C4=CC[S+]([O-])CC4)c3n2)cc1` (centres undefined) showed an IC50 of 80 nM.

For the compound `CC(C)(C)OC(=O)N1CCC(n2ncc3c(N4CCOCC4)nc(-c4ccc(NC(=O)Nc5cccnc5)cc4)nc32)CC1`, the IC50 turned out to be 32 nM.

Take `NC(=O)Nc1ccc(-c2nc(N3CCOCC3)c3cnn(C4CCN(C(=O)c5ccccc5)CC4)c3n2)cc1`: the IC80 is 84 nM.

`Nc1ccc(-c2nc(N3CCOCC3)c3cn[nH]c3n2)cc1` gave an IC50 of 1610 nM.

Take `CN(C)c1cccc(-c2nc(N3CCOCC3)c3cnn(C4CCN(Cc5ccccc5)CC4)c3n2)c1`: the IC50 came out at 9130 nM.

`c1cc2cc(-c3nc(N4CCOCC4)c4cnn([C@H]5CCCNC5)c4n3)ccc2[nH]1` had an IC50 of 10000 nM.

For `Clc1ccccc1CN1CCC(n2ncc3c(N4CCOCC4)nc(-c4ccc5[nH]ccc5c4)nc32)CC1`, the IC50 was determined as 1700 nM.

Consider `CN(C)C(=O)c1ccc(-c2nc(N3CCOCC3)c3cnn(C4CCN(Cc5ccccc5)CC4)c3n2)cc1`, for which the IC50 came out at 10000 nM.
